Results: patent publication US20090005435A1, “Novel Compounds, Pharmaceutical Compositions Containing Same, and Methods of Use for Same” (priority 2004, published 2009)
pIC50: −log10 of the molar value. In brackets after ≈: the same amount, converted by molar mass. Several values for one entry are separate records, joined by “and”; a condition that tells them apart may be missing. Equal values may be shown once.

How the values were obtained:
(O) = assay: XTT cytotoxicity assay (O); type: cell-based; conditions: read-out: XTT (IC50) (O)
Procedure: (§1) The XTT assay is a non-radioactive alternative for the [^51Cr] release cytotoxicity assay. XTT is a tetrazolium salt that is reduced to a formazan dye only by metabolically active, viable cells. The reduction of XTT is measured spectrophotometrically as OD490-OD650.
(§2) After 72 hours of incubation, cells are incubated for 4 hours with the XTT reagent as per manufacturer's instructions (Cell Proliferation Kit II (XTT) Roche). Plates are read at OD490 and OD650 on a Molecular Devices SpectraMax Plus Spectrophotometer. Three wells containing the XTT reagent without cells serve as the plate blank. XTT data are reported as OD490-OD650. Averages and standard error of the mean are computed using SOFTmax Pro software ([…]).
(§3) The IC50 for the compounds is defined as the concentration of drug leading to a 50% reduction in OD490-OD650 compared to controls. The OD490-OD650 are computed by the SOFTmax PRO software (Molecular Devices) for each compound concentration. IC50 is calculated by linear regression, plotting the FAS activity as percent of control versus drug concentrations. Linear regression, best-fit line, r^2, and 95% confidence intervals are determined using Prism Version 3.0 (Graph Pad Software).

purified human FAS = target: T1, purified human FAS (Homo sapiens, UniProt P49327); assay: FAS enzymatic activity (malonyl-CoA dependent NADPH oxidation); type: biochemical; conditions: (SB)
T1 construct: Human FAS was purified from cultured ZR-75-1 human breast cancer cells; endogenous in cells; host or cells: ZR-75-1 human breast cancer cells (ATCC); enzyme purified by PEG precipitation and Mono Q chromatography
T1 sequence (P49327 whole entry): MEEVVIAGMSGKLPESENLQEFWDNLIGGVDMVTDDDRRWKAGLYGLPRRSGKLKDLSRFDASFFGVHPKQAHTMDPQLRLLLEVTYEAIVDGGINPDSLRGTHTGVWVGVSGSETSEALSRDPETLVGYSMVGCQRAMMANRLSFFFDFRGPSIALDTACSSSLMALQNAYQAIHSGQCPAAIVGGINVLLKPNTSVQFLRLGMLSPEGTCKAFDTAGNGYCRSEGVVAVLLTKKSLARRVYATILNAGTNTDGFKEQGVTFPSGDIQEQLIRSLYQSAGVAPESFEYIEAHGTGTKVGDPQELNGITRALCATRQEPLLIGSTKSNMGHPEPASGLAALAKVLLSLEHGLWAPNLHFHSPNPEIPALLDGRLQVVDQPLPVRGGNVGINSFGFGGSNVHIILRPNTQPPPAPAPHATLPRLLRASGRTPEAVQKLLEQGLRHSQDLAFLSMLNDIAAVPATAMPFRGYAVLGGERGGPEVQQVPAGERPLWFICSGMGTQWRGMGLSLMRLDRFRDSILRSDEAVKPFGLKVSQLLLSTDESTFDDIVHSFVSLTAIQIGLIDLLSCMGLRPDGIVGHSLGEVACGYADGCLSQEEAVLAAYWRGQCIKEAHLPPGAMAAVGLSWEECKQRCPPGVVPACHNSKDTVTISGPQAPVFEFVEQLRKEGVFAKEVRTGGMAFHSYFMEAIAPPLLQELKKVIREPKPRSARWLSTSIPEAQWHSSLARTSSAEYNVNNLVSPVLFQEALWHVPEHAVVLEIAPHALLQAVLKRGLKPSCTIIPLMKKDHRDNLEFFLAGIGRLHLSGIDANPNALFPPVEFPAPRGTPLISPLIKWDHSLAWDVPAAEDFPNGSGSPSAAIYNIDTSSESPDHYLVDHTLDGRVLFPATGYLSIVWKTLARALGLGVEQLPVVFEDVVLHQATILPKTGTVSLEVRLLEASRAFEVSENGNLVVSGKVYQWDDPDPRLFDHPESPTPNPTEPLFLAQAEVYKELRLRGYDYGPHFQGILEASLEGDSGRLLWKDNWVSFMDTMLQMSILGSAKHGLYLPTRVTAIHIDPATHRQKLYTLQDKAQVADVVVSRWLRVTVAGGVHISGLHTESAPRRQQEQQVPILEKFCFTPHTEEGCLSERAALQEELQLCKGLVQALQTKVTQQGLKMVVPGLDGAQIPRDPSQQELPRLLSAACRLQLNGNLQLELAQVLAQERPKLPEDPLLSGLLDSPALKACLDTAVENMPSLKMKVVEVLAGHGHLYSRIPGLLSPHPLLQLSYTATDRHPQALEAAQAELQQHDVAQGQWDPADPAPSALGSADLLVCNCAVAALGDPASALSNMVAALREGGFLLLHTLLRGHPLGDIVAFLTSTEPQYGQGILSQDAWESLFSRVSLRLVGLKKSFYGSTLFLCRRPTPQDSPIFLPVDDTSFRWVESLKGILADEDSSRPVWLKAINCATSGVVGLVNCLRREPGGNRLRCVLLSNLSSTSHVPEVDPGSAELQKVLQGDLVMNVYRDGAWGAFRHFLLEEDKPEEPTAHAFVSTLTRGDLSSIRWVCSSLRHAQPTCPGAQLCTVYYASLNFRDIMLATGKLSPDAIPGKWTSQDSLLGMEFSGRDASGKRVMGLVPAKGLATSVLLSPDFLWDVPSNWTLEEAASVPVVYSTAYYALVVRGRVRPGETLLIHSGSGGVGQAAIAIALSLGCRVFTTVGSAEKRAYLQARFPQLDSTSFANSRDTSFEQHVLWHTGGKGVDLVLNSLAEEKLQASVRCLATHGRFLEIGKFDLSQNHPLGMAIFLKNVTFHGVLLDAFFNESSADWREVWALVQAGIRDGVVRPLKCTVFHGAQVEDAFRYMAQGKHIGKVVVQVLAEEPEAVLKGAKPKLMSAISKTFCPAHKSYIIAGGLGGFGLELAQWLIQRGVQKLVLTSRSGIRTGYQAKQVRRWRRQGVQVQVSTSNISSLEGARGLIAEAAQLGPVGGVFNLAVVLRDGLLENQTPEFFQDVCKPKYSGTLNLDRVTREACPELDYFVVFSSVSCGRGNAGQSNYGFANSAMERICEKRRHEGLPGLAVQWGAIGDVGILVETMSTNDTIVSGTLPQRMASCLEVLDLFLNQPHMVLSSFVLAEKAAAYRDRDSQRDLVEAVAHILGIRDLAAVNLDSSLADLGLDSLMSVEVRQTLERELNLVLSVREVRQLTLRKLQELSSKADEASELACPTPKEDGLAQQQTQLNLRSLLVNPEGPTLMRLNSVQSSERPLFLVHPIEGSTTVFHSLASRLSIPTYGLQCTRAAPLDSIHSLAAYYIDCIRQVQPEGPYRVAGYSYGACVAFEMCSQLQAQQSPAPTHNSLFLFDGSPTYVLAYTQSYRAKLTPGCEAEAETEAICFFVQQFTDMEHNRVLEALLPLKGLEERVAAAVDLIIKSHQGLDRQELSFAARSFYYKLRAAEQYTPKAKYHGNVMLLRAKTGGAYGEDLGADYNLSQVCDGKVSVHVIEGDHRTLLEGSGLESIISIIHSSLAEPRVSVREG
Procedure: Purification of FAS from ZR-75-1 Human Breast Cancer Cells.
Human FAS was purified from cultured ZR-75-1 human breast cancer cells obtained from the American Type Culture Collection. The procedure, adapted from Linn et al., 1981, and Kuhajda et al., 1994, utilizes hypotonic lysis, successive polyethyleneglycol (PEG) precipitations, and anion exchange chromatography. ZR-75-1 cells are cultured at 37° C. with 5% CO2 in RPMI culture medium with 10% fetal bovine serum, penicillin and streptomycin.
Ten T150 flasks of confluent cells are lysed with 1.5 ml lysis buffer (20 mM Tris-HCl, pH 7.5, 1 mM EDTA, 0.1 mM phenylmethanesulfonyl fluoride (PMSF), 0.1% Igepal CA-630) and dounce homogenized on ice for 20 strokes. The lysate is centrifuged in JA-20 rotor (Beckman) at 20,000 rpm for 30 minutes at 4° C. and the supernatant is brought to 42 ml with lysis buffer. A solution of 50% PEG 8000 in lysis buffer is added slowly to the supernatant to a final concentration of 7.5%. After rocking for 60 minutes at 4° C., the solution is centrifuged in JA-20 rotor (Beckman) at 15,000 rpm for 30 minutes at 4° C. Solid PEG 8000 is then added to the supernatant to a final concentration of 15%. After the rocking and centrifugation is repeated as above, the pellet is resuspended overnight at 4° C. in 10 ml of Buffer A (20 mM K2HPO4, pH 7.4). After […] filtration, the protein solution is applied to a Mono Q 5/5 anion exchange column (Pharmacia). The column is washed for 15 minutes with buffer A at 1 ml/minute, and bound material is eluted with a linear 60-ml gradient over 60 minutes to 1 M KCl. FAS (MW˜270 kD) typically elutes at 0.25 M KCl in three 0.5 ml fractions identified using 4-15% SDS-PAGE with Coomassie G250 stain (Bio-Rad). FAS protein concentration is determined using the Coomassie Plus Protein Assay Reagent (Pierce) according to manufacturer's specifications using BSA as a standard. This procedure results in substantially pure preparations of FAS (>95%) as judged by Coomassie-stained gels.
Measurement of FAS Enzymatic Activity and Determination of the IC50 of the Compounds
FAS activity is measured by monitoring the malonyl-CoA dependent oxidation of NADPH spectrophotometrically at OD340 in 96-well plates (Dils et al and Arslanian et al, 1975). Each well contains 2 μg purified FAS, 100 mM K2HPO4, pH 6.5, 1 mM dithiothreitol (Sigma), and 187.5 μM β-NADPH (Sigma). Stock solutions of inhibitors are prepared in DMSO at 2, 1, and 0.5 mg/ml resulting in final concentrations of 20, 10, and 5 μg/ml when 1 μl of stock is added per well. For each experiment, cerulenin (Sigma) is run as a positive control along with DMSO controls, inhibitors, and blanks (no FAS enzyme) all in duplicate.
The assay is performed on a Molecular Devices SpectraMax Plus Spectrophotometer. The plate containing FAS, buffers, inhibitors, and controls are placed in the spectrophotometer heated to 37° C. Using the kinetic protocol, the wells are blanked on duplicate wells containing 100 μl of 100 mM K2HPO4, pH 6.5 and the plate is read at OD340 at 10 sec intervals for 5 minutes to measure any malonyl-CoA independent oxidation of NADPH. The plate is removed from the spectrophotometer and malonyl-CoA (67.4 μM, final concentration per well) and […] (61.8 μM, final concentration per well) are added to each well except to the blanks. The plate is read again as above with the kinetic protocol to measure the malonyl-CoA dependent NADPH oxidation. The difference between the Δ OD340 for the malonyl-CoA dependent and non-malonyl-CoA dependent NADPH oxidation is the specific FAS activity. Because of the purity of the FAS preparation, non-malonyl-CoA dependent NADPH oxidation is negligible.
The IC50 for the compounds against FAS is determined by plotting the Δ OD340 for each inhibitor concentration tested, performing linear regression and computing the best-fit line, r^2 values, and 95% confidence intervals. The concentration of compound yielding 50% inhibition of FAS is the IC50. […]

fatty acid oxidation = assay: β-Oxidation assay, isolation of acid soluble products; type: cell-based; design: Beta Oxidation: unit not given here; conditions: for FAO MAx: maximal fatty acid oxidation, at the concentration given under E32
Procedure: β-Oxidation Assay—Isolation of Acid Soluble Products A 24 well plate with 1 ml per well was prepared with 2.5×10^5 cells/well. The cells were incubated O/N. The next day, a solubilized palmitate solution was prepared. 50 μls of (1-^14C) Palmitic acid was added to a 2 ml centrifuge tube and dried under nitrogen gas. 2 mls of α-CD (α-Cyclodextran)-10 mg/ml in 10 mM Tris were added. This solution was incubated in a 37° C. water bath for 30 minutes. A hot mix was prepared by adding 25 μls of this solution to 2.5 μls of 200 μM Carnitine and 222.5 μls of serum free medium that is used for cells. The cells were then treated with the test compound in triplicate, and incubated at 37° C. for 60 minutes. The medium was removed and 250 μls of the hot mix were added. The test compound was added again, and further incubated at 37° C. for 60 minutes. The reaction was stopped with 50 μls of 2.6 N HClO4. The contents of the plate were transferred to a 1.5 ml centrifuge tube, and 50 μls of 4N KOH were then added, and the tube incubated in a 60° C. water bath for 30 min. Sodium acetate (1M, 75 μls) and sulfuric acid (3N, 50 μls) were added to the solution and vortexed. The tube was spun for 7 minutes at 1000 rpm at room temperature. A portion (225 μls) was removed, and the following were added (vortex after each addition, twice at the end): 938 μls of 1:1 Chloroform:Methanol; 468 μls of Chloroform; 281 μls distilled Water. The tubes were spun at 1000 rpm for 5 minutes. The upper phase was removed into a large glass scintillation vial and 5 mls of Budget solvent (scintillation liquid) was added. The tubes were well vortexed. Finally, C14 was counted for one minute.

[1] = tested on: MCF-7 human breast cancer cells; assay: XTT cytotoxicity assay (M); type: cell-based; conditions: MCF7
Procedure: as §1
To measure the cytotoxicity of specific compounds against cancer cells, 9×10^3 MCF-7 human breast cancer cells, obtained from the American Type Culture Collection are plated per well in 96 well plates in DMEM medium with 10% fetal bovine serum, insulin, penicillin, and streptomycin. Following overnight culture at 37° C. and 5% CO2, the compounds to be tested, dissolved in DMSO, are added to the wells in 1 μl volume at the following concentrations: 80, 40, 20, 10, 5, 2.5, 1.25, and 0.625 μg/ml in triplicate. Additional concentrations are tested if required. 1 μl of DMSO is added to triplicate wells are the vehicle control. C75 is run at 40, 20, […], and 5 μg/ml in triplicate as positive controls.
as §2, §3

[2] = target: rat liver acyl-CoA synthetase; conditions: read-out: 50% inhibition of rat liver acyl-CoA synthetase; cited from earlier work
Raji cells = conditions: cited from earlier work
[3] = tested on: Mycobacterium tuberculosis; conditions: in vitro; cited from earlier work
viral HIV protease = viral HIV protease (Human immunodeficiency virus type 1 group M subtype B, UniProt P04585); conditions: cited from earlier work

Row | Compound | IC50 ((O)) [µg/mL] | FAS (IC50) (SB) (purified human FAS) | FAO MAx, concentration at maximum (fatty acid oxidation) [µg/mL] | FAO SC 150 (fatty acid oxidation) | Beta Oxidation (fatty acid oxidation; 0.097 ug/ml) | Beta Oxidation (fatty acid oxidation; 0.39 ug/ml) | Beta Oxidation (fatty acid oxidation; 1.56 ug/ml) | Beta Oxidation (fatty acid oxidation; 6.25 ug/ml) | Beta Oxidation (fatty acid oxidation; 25 ug/ml) | Beta Oxidation (fatty acid oxidation; 100 ug/ml) | FAO MAx (fatty acid oxidation) | IC50 [1] [µg/mL] | pIC50 [2] | growth inhibition in Raji cells at (Raji cells) [µM] | activity against Mycobacterium tuberculosis [3] | inhibition of viral HIV protease at (viral HIV protease) [mg/mL]
1 | CCCCCCC1(C)SC(=O)C(C)(C)C1=O (stereo not shown) [Compound 9, 3,3,5-Trimethyl-5-hexyl-thiophene-2,4-dione] | 14 (≈ 57.8 µM) | Neg (SB) | 6.25 | Neg | 96 | 99 | 97 | 115 | 58 | 27 | 115% | 5.3 (≈ 21.9 µM) |  |  |  | 
2 | CCCC=CCC=CC=CC=NN=NO [Triacsin C, 1-hydroxy-3-(E,E,E-2′,4′,7′-undecatrienylidine) triazene] |  |  |  |  |  |  |  |  |  |  |  |  | 5.06 | 1.0 |  | 
3 | C/C=C/C/C=C/CCC(=O)[C@H]1O[C@H]1C(N)=O [cerulenin, (2S,3R)-2,3-epoxy-4-oxo-7,10 dodecadienoyl amide] |  |  |  |  |  |  |  |  |  |  |  |  |  |  | no activity was found | 5
4 | CCCCCCCCC1(C)SC(=O)C(C)(C)C1=O (stereo not shown) [Compound 6, 3,3,5-Trimethyl-5-octyl-thiophene-2,4-dione] | > 80 | Neg (SB) | 6.25 | Neg | 100 and 86 | 110 and 93 | 110 and 102 | 121 and 141 and 130 | 57 and 52 and 53 | 19 and 29 | 141% at | 23 (≈ 85 µM) |  |  |  | 
